Data on one compound can be found in patent US10603289B2, “Process for the manufacture of ajoene derivatives” (DANMARKS TEKNISKE UNIVERSITET, priority 2010, dated 2020).

One data set concerns Gram positive bacteria. The conditions noted are these: E:Z=1:4 isomer used; cited from earlier work.
A short description of data set [1]: Biological activity after further purification, assays as described in the examples. As to conditions: after column chromatography further purified, e.g. reverse phase HPLC; or isolated pure isomers. An excerpt: The purity of (E,Z)-ajoene after the above procedure may be 95-99.5%, such as 97-99.5%, 98-99.5%, 99-99.5% such as about 99.5%. […] This was also found when isolating pure (E)-ajoene and/or pure (Z)-ajoene, e.g. using HPLC. It is speculated that small amounts of ajoene derived chemistry, i.e. compounds related to ajoene, such as less than 5%, 3%, 2%, 1%, such as less than 0.5% may be highly important in the stabilisation of (E,Z)-ajoene and derivatives, towards degradation, e.g. oxidation, reduction and or cleavage, both in vitro but importantly also in vivo.

For the next data set, the system named is P. aeruginosa cultures. Description: Growth inhibitory effect on exponential growing cultures. The conditions noted are these: 10, 20, 40 and 80 μg/ml ajoene; E:Z 1:4. The class given is cell-based. As for the experimental part: (§1) DNA microarray analysis was used to identify genes regulated by ajoene treatment. As a reference we have used the QS regulon previously identified by Hentzer et al., [M. Hentzer et al., EMBO J., 2003, 22, p. […] Exponential growing P. aeruginosa cultures were treated with the following four concentrations of ajoene; 10 μg/ml (42.7 μM), 20 μg/ml (85.4 μM), 40 μg/ml (170.8 μM) and 80 μg/ml (341.6 μM). (E,Z) ajoene having an E:Z ratio of 1:4 was used. […] The samples were retrieved at an OD600 nm of 2.0 (optical density) because previous investigations have shown the highest activity among the QS genes at that cell density. Gene expression of the treated cultures was compared to an untreated control.

For another data set, the system named is P. aeruginosa. As to conditions: E:Z=1:4 isomer used; cited from earlier work.
For the next data set, the system named is P. aeruginosa genes. Description: DNA microarray, number of genes regulated by ajoene treatment. The format is cell-based. As for the experimental part:
as §1
In general, there was only a small number of genes that were down regulated more than 5 fold by the four different concentrations of ajoene; 0 genes at 10 μg/ml ajoene, 0 genes at 20 μg/ml ajoene, 2 genes at 40 μg/ml ajoene and 11 genes at 80 μg/ml ajoene. […] According to our experimental settings, expression of 10 out of the total number of 163 QS controlled P. aeruginosa genes (according to Hentzer et al., [M. Hentzer et al., EMBO J., 2003, 22, p. 3803-3815]) was down regulated by the ajoene treatments. A concentration of 80 μg/ml ajoene affects expression of 11 out of a total of 5570 P. aeruginosa genes. Ajoene is therefore highly specific for a subclass of QS controlled genes (Table 3).

For another data set, the system named is Gram negative bacteria. The conditions noted are these: E:Z=1:4 isomer used; cited from earlier work.
The next data set concerns wild-type P. aeruginosa. The data set is described as follows: Foreign-body (silicone tube implant) infection model. The format is in vivo, mice. As for the experimental part: To examine the effect of a combination treatment with ajoene and tobramycin in vivo we used an foreign-body infection model [L. D. Christensen et al., Microbiology, 2007, 153, p. 2312-2320]. Silicone tube implants with a size of 4 mm (inner diameter 4 mm/outer diameter 6 mm) pre-colonized with wild-type P. aeruginosa, were inserted into the peritoneal cavity of mice. Treatments were injected subcutaneously every 24 hours, where ajoene and tobramycin treatment were initiated two days pre-insertion and 24 hours post-insertion, respectively. 72 hours after insertion the implants were removed from the mice and the number of colony-forming units per implant was determined. […] (E,Z) ajoene having an E:Z ratio of 1:4 was used.

The next data set has as its system P. aeruginosa PAO1. The format is in vivo. As for the experimental part: Mice were sacrificed on day one or day three post-infection and the contents of bacteria in the lungs were determined. Open squares indicate bacterial lung content per lung for each individual mouse. The median values are indicated with a filled black square. The statistic significance of difference in clearance was tested by a Mann-Whitney U test (analysis of nonparametric data) and p-values for the difference at day one and day three were 0.9 and 0.002 respectively.
In this study ajoene was administered prophylactic and subsequently continued after infection. Injections were given subcutaneous in the peritoneum. We performed three individual in vivo treatment experiments with ajoene in the mouse model of pulmonary infection using the P. aeruginosa PAO1. BALB/c mice were intracheally challenged (at day 0) with alginate beads containing 1.5×10^8 CFU/ml P. aeruginosa. The two groups of mice were either untreated (placebo) or treated with ajoene 25 μg/g mouse once a day. The mice were given two days of prophylactic treatment or placebo prior to bacterial challenge. Treatment was continued for three days. […] When combining the experiments a significant difference on day three was seen (p<0.002) with a 500 fold difference in clearance between the groups (FIG. 7). This is concordant with the results obtained by Bjarnsholt et al (2005) in a similar lung infection model in with raw garlic extract was used as treatment [T. Bjarnsholt et al., Microbiology, 2005, 151, p. 3873-3880].
This highlights that a synthesis providing a sufficiently pure “crude” ajoene product is essential in order to avoid the use of HPLC purification, as this step has a detrimental effect on biological activity. […] (E,Z) ajoene having an E:Z ratio of 1:4 was used.

In the next data set the test system is lasB. The data set is described as follows: RT-PCR verification of the microarray data. The format is cell-based, P. aeruginosa. As to conditions: 80 μg/ml ajoene; E:Z 1:4. As for the experimental part: (§2) To verify the microarray data, RT-PCR was performed with two of the key QS genes; lasB and rhlA (see FIG. 3). When comparing the two methods the repression of both the lasB and rhlA gene expression follow the same trend, with a general slightly increase in fold reduction observed with the RT-PCR based method. […] The expression of rhlA is primarily controlled by the Rhl QS system and the signal molecule BHL whereas the expression of lasB is affected by both the Las and the Rhl QS systems and the concentration of the signal molecules OdDHL and BHL. According to Rasmussen et al., [Rasmussen et al., Microbiology, 2005, 151, p. 1325-1340], the genes listed in table 3 are (except prpL which regulation is entirely governed by the Las QS system) subject to regulation by both the Las and Rhl QS systems. […] (E,Z) ajoene having an E:Z ratio of 1:4 was used in these experiments.

The test system of the next data set is rhlA. Description: RT-PCR verification of the microarray data. The format is cell-based, P. aeruginosa. The conditions noted are these: 80 μg/ml ajoene; E:Z 1:4. Here is the method:
as §2

In the case of `C=CCSSC=CC[S+]([O-])CC=C` (stereo not shown) [ajoene, (E,Z)-4,5,9-trithiadodeca-1,6,11-triene-9-oxide], the “growth inhibition of Gram positive bacteria” value in the data set with Gram positive bacteria is reported as “strong growth inhibitor”. Also, in data set [1], the “biological activity after further purification” value is “lost all or parts of its biological activity”. Moreover, the growth inhibitory effects entry with P. aeruginosa cultures was “do not exert any growth inhibitory effects”. Moreover, the “growth inhibitory effect on P. aeruginosa” value in the data set with P. aeruginosa is listed as “no measurable growth inhibitory effect”. Moreover, the “number of genes down regulated more than 5 fold” value is 0 genes in the data set with P. aeruginosa genes (10 μg/ml ajoene); 0 genes in the data set with P. aeruginosa genes (20 μg/ml ajoene); 2 genes in the data set with P. aeruginosa genes (40 μg/ml ajoene); 11 genes in the data set with P. aeruginosa genes (80 μg/ml ajoene, out of a total of 5570 P. aeruginosa genes). For the same compound, the “number of QS controlled P. aeruginosa genes down regulated by the ajoene treatments” value in the data set with P. aeruginosa genes (out of the total number of 163 QS controlled genes (Hentzer et al.)) stood at 10 genes. Moreover, the “inhibitory effect on Gram negative bacteria” value in the data set with Gram negative bacteria is recorded as “varied inhibitory effect”. Besides, the “clearing of implants, single treatment versus placebo group” value in the data set with wild-type P. aeruginosa (CFU per implant 72 hours after insertion) is on record as “significant difference in clearing”. In the data set with wild-type P. aeruginosa (ajoene versus tobramycin), the “clearing of implants, between the two single treatment groups” value is reported as “no significant difference in clearing”. In addition, the “difference in clearance between treated and placebo groups” value in the data set with P. aeruginosa PAO1 (day three, 25 μg/g mouse once a day subcutaneous, two days prophylactic, three experiments combined) was determined as 500 fold. Also, in the data set on P. aeruginosa PAO1 (mouse, in vivo), the “tolerability of the administered dosage” value is “tolerated well”. In the data set with lasB, the “lowering of expression of lasB (RT-PCR)” value is listed as roughly 5 fold. Further, the “lowering of expression of rhlA (RT-PCR)” value with rhlA is roughly 12 fold.
